Laboratory results from PubChem BioAssay AID1963449 (Molecular Pharmacology Branch, DTP, NCI, 2024).

System: 596521-263-R-J1-PDC complex spheroid growth
Assay: Anticancer human tumor 596521-263-R-J1-PDC patient-derived soft tissue sarcoma cell line growth inhibition [Asc]
Conditions: for IC50: curve of first compound; for viability, T/C: stronger effect = lower value
Experimental: Multicellular complex tumor spheroid response to apoptosis pathway targeting inhibitors Alrizomadlin, Pelcitoclax, and Dasminapant in combination with a variety of drugs and investigational agents in selected tumor cell lines
The MDM2 inhibitor alrizomadlin, the Bcl-2/Bcl-xL inhibitor pelcitoclax, and the IAPs inhibitor dasminapant were evaluated both individually and in combination with standard of care and investigational anticancer small molecules within a complex spheroid model of solid tumors. . Complex spheroids include a stromal component modeled by human endothelial cells (HUVEC) and fibroblasts modeled by human mesenchymal stem cells (MSCs). The concentration ranges selected for each drug and investigational agent were based upon clinically achievable concentrations if the clinical Cmax of the agent was known.
Compounds. The drugs and investigational agents: alrizomadlin (APG-115; NSC831270), pelcitoclax (APG-1252; NSC835773), dasminapant (APG-1387;NSC834197), TAK-243 (NSC785004), copanlisib (NSC809693), olaparib (NSC753686), talazoparib (NSC767125), cobimetinib (NSC 768068), eltanexor (KPT-8602, NSC 794443), abemaciclib (NSC 768073), sotorasib (NSC818433), adagrasib (NSC 831453), MRTX-1133 (NSC 836407), Iadademestat (ORY1001, NSC 806812), and RMC-4630 (NSC839698), were obtained from the NCI Developmental Therapeutics Program Chemical Repository. The FDA-approved anticancer drug set is available from the Developmental Therapeutics Program at https://dtp.cancer.gov/organization/dscb/obtaining/available plates.htm. […] The stock solutions were prepared in dimethyl sulfoxide (DMSO, Sigma-Aldrich, St. Louis, MO, cat. D2650) at 800-fold the tested concentration and stored at -70 degrees C prior to their use. All drugs and investigational agents were tested over a range starting from a high concentration at or near the clinical Cmax and decreasing in half-log increments. If the clinical Cmax for an agent had not been determined, the highest concentration tested was 10 microM.
The patient-derived cancer (PDC) cell lines include five colon adenocarcinomas: 186277-243-T-J2-PDC, 616215-338-R-J1-PDC, 439559-082-T-J2-PDC, 463943-066-T-J2-PDC, and 519858-162-T-J1-PDC; three pancreatic carcinomas: 323965-272-R-J2-PDC, 521955-158-R6-J3-PDC, and 521955-158-R2-J5-PDC; two uterine sarcomas: 327498-152-R-J2-PDC and 993429-296-R-J1-PDC; two rhabdomyosarcomas: 755483-174-R-J1-PDC and 772245-204-R-J1-PDC; two soft tissue sarcomas: 126254-015-R-J1-PDC and 494315-158-R-J1-PDC; two malignant fibrous histiocytomas: 317291-083-R-J1-PDC and 596521-263-R-J1-PDC; two breast carcinomas: 171881-019-R-J1-PDC and 885512-296-R-J2-PDC; and one ovarian carcinoma: 6556581-035-R-J-PDC were obtained from the NCI PDMR, (https://pdmr.cancer.gov). The established cell lines HSSY-2 synovial sarcoma (RRID:CVCL 8719), SYO-1 synovial sarcoma (RRID:CVCL_7146), MPNST malignant peripheral neural sheath tumor were obtained from the Sloan Kettering Institute. The following established cell lines were purchased from the American Type Culture Collection (ATCC, Manassas, VA), Sor the received from the NCI repository:, PANC-1 pancreatic carcinoma (CRL-1469, RRID:CVCL_0480), OVCAR-5 ovarian carcinoma (RRID:CVCL_1628), OVCAR-8 ovarian carcinoma (RRID:CVCL_1629), , MCF-7 breast carcinoma (CRL-12584, RRID:CVCL_0031), MDA-MB-231 breast carcinoma (CRL-12532, RRID:CVCL_0062), NCI-H1876 small cell lung carcinoma (CRL-5902, RRID:CVCL_1503), NCI-H510A small cell lung carcinoma (HTB-184, RRID:CVCL_1565), NCI-H1417 (CRL-5869, RRID:CVCL_1469), and NCI-H196 small cell lung carcinoma (CRL-5823, RRID:CVCL_1509). Dr. Peter Houghton (Greehey Children's Cancer Research Institute, University of Texas Health Science Center, San Antonio, TX) provided Rh-18 rhabdomyosarcoma (RRID:CVCL_1659). Pooled donor human umbilical vein endothelial cells (HUVEC, Lonza, cat. CC-2519) and human mesenchymal stem cells (hMSC, Lonza, cat. PT-2501) were purchased from Lonza (Walkersville, MD).
Cell Culture. […]
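Also: spheroids exposed to compounds for 7 days.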

SMILES: C=C(F)C(=O)N1CCN(c2nc(OCC3CCCN3C)nc3c2CCN(c2cccc4cccc(Cl)c24)C3)CC1CC#N (configuration not stated) + Cc1c(S(C)(=O)=O)c(-c2cc(F)cc(N3CCN(c4ccc(NS(=O)(=O)c5ccc(NC(CCN6CCC(C(=O)OCCCP(=O)(O)O)CC6)CSc6ccccc6)c(S(=O)(=O)C(F)(F)F)c5)cc4)CC3)c2)c(-c2ccc(Cl)cc2)n1C(C)C
- IC50 (second compound 0.0316 µM): 4.96 µM
- IC50 (second compound 0.1 µM): 4.52 µM
- IC50 (second compound 0.316 µM): 4.25 µM
- IC50 (second compound 1 µM): 2.76 µM
- IC50 (second compound 3.16 µM): 0.66 µM
- IC50 (second compound 10 µM): 0.326 µM
- viability, T/C (second compound 0.0316 µM, first compound 0.0316 µM): 110%
- viability, T/C (second compound 0.0316 µM, first compound 0.1 µM): 98.3%
- viability, T/C (second compound 0.0316 µM, first compound 0.316 µM): 87.6%
- viability, T/C (second compound 0.0316 µM, first compound 1 µM): 101%
- viability, T/C (second compound 0.0316 µM, first compound 3.16 µM): 81.9%
- viability, T/C (second compound 0.0316 µM, first compound 10 µM): 0.22%
- viability, T/C (second compound 0.1 µM, first compound 0.0316 µM): 98.4%
- viability, T/C (second compound 0.1 µM, first compound 0.1 µM): 97.9%
- viability, T/C (second compound 0.1 µM, first compound 0.316 µM): 93.9%
- viability, T/C (second compound 0.1 µM, first compound 1 µM): 91.1%
- viability, T/C (second compound 0.1 µM, first compound 3.16 µM): 72.8%
- viability, T/C (second compound 0.1 µM, first compound 10 µM): 0.18%
- viability, T/C (second compound 0.316 µM, first compound 0.0316 µM): 104%
- viability, T/C (second compound 0.316 µM, first compound 0.1 µM): 98%
- viability, T/C (second compound 0.316 µM, first compound 0.316 µM): 92.4%
- viability, T/C (second compound 0.316 µM, first compound 1 µM): 89.6%
- viability, T/C (second compound 0.316 µM, first compound 3.16 µM): 68.2%
- viability, T/C (second compound 0.316 µM, first compound 10 µM): 0.17%
- viability, T/C (second compound 1 µM, first compound 0.0316 µM): 84.3%
- viability, T/C (second compound 1 µM, first compound 0.1 µM): 87%
- viability, T/C (second compound 1 µM, first compound 0.316 µM): 76.7%
- viability, T/C (second compound 1 µM, first compound 1 µM): 80%
- viability, T/C (second compound 1 µM, first compound 3.16 µM): 46%
- viability, T/C (second compound 1 µM, first compound 10 µM): 1.18%
- viability, T/C (second compound 3.16 µM, first compound 0.0316 µM): 79.5%
- viability, T/C (second compound 3.16 µM, first compound 0.1 µM): 67.4%
- viability, T/C (second compound 3.16 µM, first compound 0.316 µM): 52.4%
- viability, T/C (second compound 3.16 µM, first compound 1 µM): 50.5%
- viability, T/C (second compound 3.16 µM, first compound 3.16 µM): 26.9%
- viability, T/C (second compound 3.16 µM, first compound 10 µM): 0.2%
- viability, T/C (second compound 10 µM, first compound 0.0316 µM): 58.4%
- viability, T/C (second compound 10 µM, first compound 0.1 µM): 50.1%
- viability, T/C (second compound 10 µM, first compound 0.316 µM): 48.3%
- viability, T/C (second compound 10 µM, first compound 1 µM): 44.2%
- viability, T/C (second compound 10 µM, first compound 3.16 µM): 22%
- viability, T/C (second compound 10 µM, first compound 10 µM): 1.02%
